Results published in patent EP3858342A1, “ACYLHYDRAZONES FOR THE TREATMENT OF NEUROLOGICAL DISEASES” (Consejo Superior de Investigaciones Científicas (CSIC), priority 2018, dated 2020).
Entries after “also recorded” stand apart in the source; their conditions may differ. Read-outs that look alike come from different tables or passages of the source.

What was measured:
[1] = tested on: Flies overexpressing aβ42arc (D42Gal4> aβ42arc) in their motor neurons; assay: Locomotor activity in a Drosophila melanogaster model for Alzheimer's disease (Drosophila activity monitors); format: in vivo; conditions: D42Gal4> aβ42arc flies fed 100 µM; total number of beam breaks per hour, two consecutive days; vs DMSO
Description: As mentioned, overexpression of the human aβ42arc peptide in the motor neurons of Drosophila melanogaster causes synapse loss and this correlates with a severe locomotor dysfunction. Flies overexpressing aβ42arc (D42Gal4> aβ42arc) in their motor neurons or overexpressing the control (D42Gal4> LacZ) were fed with compound A3H3 at a concentration of 100 µM or with DMSO using the same concentration. Fly locomotor activity was recorded in Drosophila activity monitors (DAM2, Trikinetics) and the total number of beam breaks per hour was analyzed for two consecutive days.

[2] = target: T1, NCS-1/Ric8a interaction (Homo sapiens, UniProt P62166); assay: Co-immunoprecipitation assay of NCS-1/Ric8a interaction in transfected HEK293 cells; format: cell-based; conditions: for NCS-1/Ric8a interaction: HEK293 cells transfected with human Ric8a (V5 tag) and NCS1, IP with anti-NCS1, Western blot with anti-V5, DMSO lane = baseline; for modulatory activity: stated as the reason for modelling the compounds in Drosophila Frq2, underlying test not specified
T1 construct: expressed in transfected cells; host or cells: HEK293
Description: To identify compounds useful as modulators of the protein complex formed by NCS-1 and Ric8 (specifically as compounds useful for promoting NCS-1/Ric8a interaction), the experiment shown in Figure 1 was carried out. […] The DMSO lane represents baseline levels of NCS1/Ric8a interaction. IP was performed with anti-NCS1 antibodies, followed by the immunodetection of Ric8a in Western blot with the anti-V5 antibody.
(§1) • Figure 1. […] The DMSO lane represents […]. • Figure 2. […] The curves were fitted considering a stoichiometry of 1:1. For correct curve comparison, intensities were normalized and depicted as (I0 - I)/I0. X. The value of r^2 is 0.998. • Figure 3. […] The residues in which sequence differences are found are shown in pink. • Figure 4. These three figures show the pharmacophore group taking the compound A3H3 as an example. Specifically, groups A1, A2, and N6 (N) refer to the heteroatoms forming the central part of acylhydrazone commonly found in all the assayed compounds, in other words, the carbonyl (A1) bound to the N of amide (N6), which is in turn bound to another imine N (A2). The terms R7 (R) and R8 (R') refer to the aromatic rings which act as substituents. Both the carbonyl-bound R and the imine N-bound R are aromatic • Figure 5. […] Evaluation of the efficacy of compound A3H3 in a model for Huntington's disease. Wild-type mice WT and transgenic mice (HD) expressing exon 1 of human huntingtin (strain R6/1) were treated orally with compound A3H3 at a dose of 25 mg/kg. The treatment started at 3 months of age and lasted for 6 weeks. As a measurement of motor coordination, stride length (A) and the stay time on Rotarod (B) were analyzed.
In order to evaluate the capacity of the compounds of the invention, A3H3, A5H2, and A3H4, for modulating interaction between human NCS-1 and Ric8as, HEK293 cells were transfected with a version of epitope V5-labeled Ric8a (Ric8a-V5) and NCS-1, performing cell incubation and then cell lysis with the product to be assayed. The amount of NCS-1-bound Ric8a-V5 was then assessed by means of the immunoprecipitation technique.

[3] = tested on: transgenic mice (HD) expressing exon 1 of human huntingtin (strain R6/1); assay: Motor coordination in a mouse model for Huntington's disease; format: in vivo; conditions: oral, 25 mg/kg, start at 3 months of age, after 6 weeks, significant differences with respect to the rest of groups
Description: as §1

[4] = target: T2, dNCS-1 (Drosophila melanogaster, UniProt Q9VWX8); assay: Affinity for dNCS-1 by fluorescence spectroscopy; format: binding; conditions: for affinity in the fluorescence technique: additional fluorescence studies, result in words
T2 sequence (Q9VWX8 1-187): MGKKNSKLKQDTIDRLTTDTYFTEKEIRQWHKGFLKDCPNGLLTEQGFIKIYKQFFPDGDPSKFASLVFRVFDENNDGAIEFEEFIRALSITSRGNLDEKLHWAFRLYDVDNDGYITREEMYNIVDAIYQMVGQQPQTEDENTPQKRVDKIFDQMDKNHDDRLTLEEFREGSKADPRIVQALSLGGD
Description: The protein complex formed by NCS-1 and Ric8 regulates the number of synapses and neurotransmitter release probability, so it is considered a good therapeutic target for the treatment of diseases in which the synapse is impaired. Based on fluorescence spectroscopy studies, the affinity of compounds for dNCS-1 (neuronal calcium sensor of Drosophila) has been proven. Neuronal calcium sensor NCS-1 is a protein the sequence of which is conserved from yeasts to humans.
The affinity of the compounds for dNCS-1 was measured by means of the fluorescence spectroscopy technique. The emission intensity of the complex is analyzed, where the signal is monitored at increasing concentrations of ligand (1:0 to 1:30 equivalents), keeping the protein concentration […], 30.8 µM, 1 eq.) constant. The affinity constant is thereby obtained through the apparent disassociation constant. […] The experiments are performed at 5°C with dNCS-1 in 50 mM Tris buffer, pH 7.9, 125 mM NaCl, 0.5 mM CaCl2 with 5% DMSO in a total volume of 300 µL. The experiment is performed at the excitation wavelength of 295 nm and at the emission wavelength of 345 nm (maximum emission) depending on the compound in a Jobin Yvon Floromax4 spectrofluorometer equipped with a Peltier Thermostat; the obtained values are the result of the normalized average of the three repetitions for each measurement. […] The affinity constants found for the tested compounds are as follows: […]

[5] = tested on: flies overexpressing human aβ42arc (D42Gal4> aβ42arc); assay: Number of synapses in a Drosophila melanogaster model for Alzheimer's disease; format: in vivo; conditions: flies fed with 100 µM throughout the entire life cycle; adult abdominal motor neurons of 20 days; nc82-positive points, confocal images; vs DMSO
Description: It has been described above that the expression of the human aβ42arc peptide (Arctic mutation) in motor neurons leads to a reduction in the number of synapses with respect to normal neuromuscular junctions in individuals of the same age, therefore, flies overexpressing human aβ42arc (D42Gal4> aβ42arc) were fed with 100 µM compound A3H3 or with the same amount of solvent, DMSO, throughout the entire life cycle. Adult abdominal motor neurons of 20 days were analyzed and the number of synapses (nc82-positive points) was determined in different flies using confocal images.

[6] = apparent dissociation constant, 5°C, 50 mM Tris buffer pH 7.9, 125 mM NaCl, 0.5 mM CaCl2, 5% DMSO, excitation 295 nm, emission 345 nm, three repetitions, read-out: Kd

T1 sequence (P62166 2-190 limits assumed): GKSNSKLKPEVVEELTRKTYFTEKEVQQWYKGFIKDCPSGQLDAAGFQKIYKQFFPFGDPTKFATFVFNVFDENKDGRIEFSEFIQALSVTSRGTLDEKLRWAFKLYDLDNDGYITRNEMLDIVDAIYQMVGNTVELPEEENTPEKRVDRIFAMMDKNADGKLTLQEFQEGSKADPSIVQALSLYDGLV
T1 sequence (Q9NPQ8 whole entry partner): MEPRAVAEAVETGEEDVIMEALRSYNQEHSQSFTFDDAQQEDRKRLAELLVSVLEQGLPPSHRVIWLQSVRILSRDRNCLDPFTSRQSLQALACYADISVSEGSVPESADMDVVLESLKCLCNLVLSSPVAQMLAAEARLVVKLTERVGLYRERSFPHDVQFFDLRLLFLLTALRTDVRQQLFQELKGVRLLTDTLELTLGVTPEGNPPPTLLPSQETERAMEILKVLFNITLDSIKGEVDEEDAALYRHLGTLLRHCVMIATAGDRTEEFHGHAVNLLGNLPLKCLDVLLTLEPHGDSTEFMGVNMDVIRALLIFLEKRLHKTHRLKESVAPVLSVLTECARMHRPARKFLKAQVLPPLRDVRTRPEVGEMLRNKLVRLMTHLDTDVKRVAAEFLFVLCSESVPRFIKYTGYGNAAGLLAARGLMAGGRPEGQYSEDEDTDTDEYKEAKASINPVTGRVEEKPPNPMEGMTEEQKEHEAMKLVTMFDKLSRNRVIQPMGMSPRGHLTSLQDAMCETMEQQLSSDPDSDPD

Structure (SMILES) | NCS-1/Ric8a interaction [2] | Kd [4, 6] [µM] | further results
O=C(Cc1c[nH]c2ccccc12)NN=Cc1ccc([N+](=O)[O-])c(O)c1 (mixture of isomers) [A3H3, (E/Z)-N'-(3-hydroxy-4-nitrobenzylidene)-2-(1H-indol-3-yl)acetohydrazide] | allows interaction with Ric8-a; also recorded: promoted NCS-1/Ric8a interaction | 43 ± 6 | locomotor impairment due to overexpression of aβ42arc [1]: thoroughly improved; increase of the binding of NCS-1 with Ric8a ([2]; HEK293 cells transfected with Ric8a-V5 and NCS-1, amount of NCS-1-bound Ric8a-V5 by immunoprecipitation): more than two fold; modulatory activity [2]: exhibited modulatory activity; stay time on Rotarod [3]: the same cannot be said; stride length [3]: the same cannot be said; pathological reduction of the synapse count [5]: greatly suppressed
O=C(NN=Cc1ccc([N+](=O)[O-])c(O)c1)c1cc2ccccc2cc1O (mixture of isomers) [A3H19, (E/Z)-3-hydroxy-N'-(3-hydroxy-4-nitrobenzylidene)-2-naphthohydrazide] | promoted NCS-1/Ric8a interaction |  | 
O=C(NN=Cc1ccc(Cl)c([N+](=O)[O-])c1)c1cccs1 (mixture of isomers) [A5H8, (E/Z)-N'-(4-chloro-3-nitrobenzylidene)thiophene-2-carbohydrazide] |  |  | Kd [4]: 19 ± 8 µM
O=C(NN=Cc1cc(F)ccc1[N+](=O)[O-])c1cccs1 (mixture of isomers) [A7H8, (E/Z)-N'-(5-fluoro-2-nitrobenzylidene)thiophene-2-carbohydrazide] |  | 4 ± 1 | 
O=C(NN=Cc1ccc([N+](=O)[O-])c(O)c1)C(O)c1ccccc1 (racemic) [A3H6, (±)-(E/Z)-2-hydroxy-N'-(3-hydroxy-4-nitrobenzylidene)-2-phenylacetohydrazide] | promoted NCS-1/Ric8a interaction |  | 
O=C(N/N=C/c1ccc([N+](=O)[O-])c(O)c1)c1ccco1 [A3H2, (E)-N'-(3-hydroxy-4-nitrobenzylidene)furan-2-carbahydrazide] |  | 32 ± 2 | 
COCCC(=O)N/N=C/c1ccc([N+](=O)[O-])c(O)c1 [A3H4, (E)-N'-(3-hydroxy-4-nitrobenzylidene)-3-methoxypropanehydrazide] | allows interaction with Ric8-a |  | 
CC(C)(C)c1ccc(C(=O)N/N=C/c2ccc([N+](=O)[O-])c(O)c2)cc1 [A3H17, (E)-4-(tert-butyl)-N'-(3-hydroxy-4-nitrobenzylidene)benzohydrazide] | promoted NCS-1/Ric8a interaction |  | 
O=C(N/N=C\c1ccc([N+](=O)[O-])c(O)c1)c1ccc(Cl)s1 [A3H18, (Z)-5-chloro-N'-(3-hydroxy-4-nitrobenzylidene)thiophene-2-carbohydrazide] | promoted NCS-1/Ric8a interaction |  | 
O=C(Cc1c[nH]c2ccccc12)NN=Cc1ccc2ccccc2c1[N+](=O)[O-] [A4H3] |  |  | affinity in the fluorescence technique [4]: without yielding any positive results
O=C(NN=Cc1ccc2ccccc2c1[N+](=O)[O-])C(O)c1ccccc1 (stereo not drawn) [A4H6] |  |  | affinity in the fluorescence technique [4]: without yielding any positive results
O=C(NN=Cc1ccc2ccccc2c1[N+](=O)[O-])c1cccs1 [A4H8] |  |  | affinity in the fluorescence technique [4]: without yielding any positive results
O=C(N/N=C\c1ccc(Cl)c([N+](=O)[O-])c1)c1ccco1 [A5H2, (Z)-N'-(4-chloro-3-nitrobenzylidene)furan-2-carbohydrazide] | allows interaction with Ric8-a; also recorded: promoted NCS-1/Ric8a interaction | 3.2 ± 0.3 | 
O=C(NN=Cc1ccc(Cl)c([N+](=O)[O-])c1)C(O)c1ccccc1 (stereo not drawn) [A5H6] |  | 3.2 ± 0.3 | modulatory activity [2]: exhibited modulatory activity
O=C(N/N=C/c1cc(F)ccc1[N+](=O)[O-])c1ccco1 [A7H2, (E)-N'-(5-fluoro-2-nitrobenzylidene)furan-2-carbohydrazide] |  | 25 ± 4 | modulatory activity [2]: exhibited modulatory activity
O=C(N/N=C/c1cc([N+](=O)[O-])ccc1F)c1ccco1 [A8H2, (E)-N'-(2-fluoro-5-nitrobenzylidene)furan-2-carbohydrazide] | promoted NCS-1/Ric8a interaction | 7 ± 1 | 
